# Measured values from PubChem BioAssay AID1259427 (Fisher Drug Discovery Resource Center, 2018).
# pEC50: −log10 of the molar value. Calls of active or inactive are those of the source.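 The calls were made as follows: active = EC50 at or below a set limit, with no effect in the paired counter-screen assay; inactive = the rest.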
# Target: Aedes aegypti neuropeptide Y-like receptor 7 (NPYLR7)
# Experiment: NPYLR7 activation potency in cells – cell-based, Aedes aegypti, hit validation, mosquito biting behavior, confirmation (AID 1259427);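 also: potency of agonists that activate the receptor and raise the calcium signal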
# Conditions: HEK293T NPYLR7/Galpha15/GCaMP6s, calcium fluorescence
EC50,pEC50,Compound
inactive,–,CCOC(=O)c1ccc(N=c2oc3cc(O)ccc3cc2-c2nc3ccccc3[nH]2)cc1
inactive,–,N#Cc1cc2cc(Cl)cc(Cl)c2oc1=O
> 20 µM (inactive),–,O=C(CN1C(=O)SC(=Cc2ccc(N3CCCCCC3)o2)C1=O)N1CCCCCC1
> 20 µM (inactive),–,O=C(CSc1cn(CC(=O)N2CCCCCC2)c2ccccc12)NC1CCCC1
–,4.78,CCOc1cc(/C=C2/Oc3cc(O)ccc3C2=O)cc(Cl)c1OCC(=O)N(C)C
> 20 µM (inactive),–,FC(F)(F)c1cc(-c2cccs2)nc2ncnn12
> 20 µM (inactive),–,COC(=O)C(C)Sc1nc2sc3c(c2c(=O)n1C)CCC3 (centres undefined)
> 20 µM (inactive),–,Clc1cccc2ccc(CN3CCn4cncc4C3)nc12
> 20 µM (inactive),–,CC1(C)CC(=O)C2C(=Nc3[nH]c(=S)[nH]c(=O)c3C2c2ccc3c(c2)OCO3)C1 (centres undefined)
> 20 µM (inactive),–,CC(C(=O)O)N1C(=O)/C(=C\c2ccc(O)cc2)SC1=S (centres undefined)
> 20 µM (inactive),–,CCC(C)n1cc(/C=C2/C(=O)NC(=O)N(c3ccc4c(c3)OCO4)C2=O)c2ccccc21 (centres undefined)
> 20 µM (inactive),–,CCN1CCc2c(sc(NC(=O)c3ccccc3)c2-c2nc3ccccc3s2)C1
–,4.70,CN=c1nc(-c2ccccc2)n(-c2ccccc2)s1
–,4.76,CCCCC(CC)CN=C(N)NC(N)=NCCCCCCN=C(N)NC(N)=NCC(CC)CCCC (centres undefined)
> 20 µM (inactive),–,CC(=O)Oc1ccc(Cn2c(C)c(C(=O)NCc3ccc(C#N)cc3)sc2=O)cc1
> 20 µM (inactive),–,CC[n+]1c(/C=C/C=C2/N(C)c3ccccc3C2(C)C)sc2ccccc21
inactive,–,CSc1nc(N)c2ncn([C@@H]3O[C@H](COP(=O)(O)OP(=O)(O)OP(=O)(O)O)[C@H](O)C3O)c2n1 (some centres undefined)
< 0.039 µM (inactive),–,CCCCN(C)C1=CC2=CC(=C(C#N)C#N)CCC2CC1 (centres undefined)
> 20 µM (inactive),–,CCN1CCc2c(sc(NC(=O)COc3ccccc3)c2-c2nc3ccccc3s2)C1
> 20 µM (inactive),–,O=C1c2ccccc2C(=O)C1c1ccnc2ccccc12

EC50,pEC50,Compound
< 0.039 µM (inactive),–,Cc1cc2nc3c(=O)[nH]c(=O)nc-3n(CC(O)C(O)C(O)CO)c2cc1C (centres undefined)
> 20 µM (inactive),–,COc1ccc(CCN2COc3ccc4c(c3C2)O/C(=C\c2cccnc2)C4=O)cc1
inactive,–,COc1ccc(/C=C2\Oc3c(ccc4c3CN(Cc3ccncc3)CO4)C2=O)cc1
> 20 µM (inactive),–,CC(=O)Nc1nc(COC(=O)c2[nH]c(C)c(C(=O)OC(C)C)c2C)cs1
> 20 µM (inactive),–,COc1cc(OC)c(C2=NOC3(CC(=O)N(c4cccc(Cl)c4)C3=O)C2)cc1OC (centres undefined)
inactive,–,CC1(C)OC2OC(C(O)c3cc(O)c4c(c3O)C(=O)c3ccccc3C4=O)C(C)(O)C2O1 (centres undefined)
inactive,–,O=C1C(=Cc2ccccc2O)NC(=S)N1Cc1ccco1
> 20 µM (inactive),–,NC(=O)CN1c2cccc3cccc(c23)S1(=O)=O
> 20 µM (inactive),–,C=CCN1C(=O)C(Cc2ccc(OC)cc2)S/C1=N/N=C\c1cccs1 (centres undefined)
> 20 µM (inactive),–,CCN1CCN(Cc2c(O)cc(C)c3c2O/C(=C\c2ccco2)C3=O)CC1
< 0.039 µM (inactive),–,CCN(CC)c1ccc2cc(C(N)=O)/c(=N\NC(N)=S)oc2c1
–,5.58,NC(=NCCCCCCN=C(N)N=C(N)Nc1ccc(Cl)cc1)N=C(N)Nc1ccc(Cl)cc1
> 20 µM (inactive),–,CCOC(=O)c1c(-c2ccccc2)csc1N=Cc1nc(-c2ccccc2)oc1O
> 20 µM (inactive),–,COc1ccc(-n2ccnc2-c2ccc(C#CC(C)(C)O)cc2)cn1
inactive,–,CC(=NNc1ncnc2sc(C)c(C)c12)c1ccccn1
> 20 µM (inactive),–,COc1cccc(CNC2CC2)c1OCc1nc(CO)cs1
> 20 µM (inactive),–,O=[N+]([O-])c1ccc(-n2nc3ccc4nonc4c3n2)cc1
> 20 µM (inactive),–,CCCc1nn2c(N)c(C=C3C=C(Cl)C(=O)C(Cl)=C3)c(=O)nc2s1
> 20 µM (inactive),–,CNC[C@@H](O)c1ccc(O)c(O)c1
